Patent publication EP1113802B1, “ANTIVIRAL COMBINATIONS OF […] ADEFOVIR” (priority 1998, dated 2000)
Where two headings read alike, the source gives them in different places.

What was measured:
HBV = details: to the end of the second year of a two year study; cited from earlier work
in vitro = assay type: cell-based; details: human; HepG2 cells; read-out: cytotoxic IC50
Description: The IC50 for PMEA was determined against wild type (WT) and lamivudine resistant HBV transiently expressed in a cell culture system as described below. HepG2 cells were transiently transfected with plasmid containing the HBV genome that had the wild type sequence or contained the following lamivudine resistant mutations in the reverse transcriptase gene; M552I, M552V, L528M, L528MM552V. […] HepG2 cells were seeded into 96-well Costar plates at 6300 cells per well in 150 µl of HepG2 media (Dulbecco's Modified Eagle Medium (DMEM), containing 10% fetal bovine serum) and were incubated overnight at 37°C. For each transfected well, 75 ng of plasmid DNA and 0.5 µl of lipofectamine (Gibco) were incubated together for 30 minutes at room temperature in 12.5 µl of OptiMem (Gibco) prior to addition of DNA/lipofectamine mixture to cells. Each well was rinsed with 150 µl of unsupplemented DMEM. […] HBV DNA levels were quantitated from media harvested from cells on day 7 using the methods described in Jansen RW, Johnson LC, Averett, DR. […] Cytotoxicity due to drug treatment was determined using the DNA stain Bisbenzimide (H33342 3HCl 4H2O; Calbiochem Company, La Jolla CA). […] Fluorescent values per well were determined with a Millipore Cytofluor 2350 fluorescent plate reader (excitation, 355 nm; emission, 460 nm; arbitrary units). […]

[1] = tested on: Human hepatitis B DNA polymerase which expresses lamivudine codons; details: Xiong et al. 1997, Abstract No. 1211; cited from earlier work
WT HBV = assay: PMEA inhibition of HBV DNA production, HepG2 cells transiently transfected with HBV genome plasmid; assay type: cell-based; details: Hepatitis B virus, 168 h, WT construct, day 7, read-out: IC50 PMEA (95%Cl)
Description: (§1) The human hepatobtastoma cell line (Hep-G2-2.2.15) which constitutively produces infectious HBV was seeded into 96 well microtiter plates at a density of 5 x 10^3 cells per well. These cells were treated with a combination of lamivudine and PMEA on triplicate plates. Culture media containing drugs was replenished every other day for 9 days, at which time supernatants were collected and analyzed for HBV content. The lamivudine/PMEA combination was tested twice in triplicate in matrix fashion. […] Data were normalised to values obtained with non-drug treated cells, and expressed as a percent of control for analysis. […] Briefly, HBV detection was performed by "capturing" virus from supernatants on Anti-HBsAg coated plates, washing, denaturing to release HBV DNA, performing PCR with biotinylated primers, streptavidin capture of biotinylated PCR products with concomitant probe hybridization, addition of substrate, and reading optical densities of the colorimetric reaction. Dilutions of a standardized HBV-containing supernatant were included on every plate, and HBV DNA concentrations of test wells were calculated from this HBV standard curve. The useful range of detection is at least .045 to 45 fg of HBV DNA, where 30 copies of the genome can be reliably detected. […]

[2] = tested on: WT HBV produced by the 2.2.15 cells; details: Heijtink et al. 1993, read-out: IC50 of PMEA, literature value using the same cell line; cited from earlier work
HBV L528M = assay: PMEA inhibition of HBV DNA production, HepG2 cells transiently transfected with HBV genome plasmid; assay type: cell-based, hepatitis B virus
Description: (§2) The human hepatobtastoma cell line (Hep-G2-2.2.15) which constitutively produces infectious HBV was seeded into 96 well microtiter plates at a density of 5 x 10^3 cells per well. These cells were treated with a combination of lamivudine and PMEA on triplicate plates. Culture media containing drugs was replenished every other day for 9 days, at which time supernatants were collected and analyzed for HBV content. The lamivudine/PMEA combination was tested twice in triplicate in matrix fashion. Experiment 1 utilised a lamivudine range of 100 nM to 0.14 nM (3-fold dilutions in columns), and PMEA, 9-[(R)-2-(phosphonomethoxy)ethyl]adenine (adefovir), at concentrations of 1 µM to 10 nM (3.16 fold dilutions in rows). Experiment 2 was performed with dilutions of Lamivudine ranging from 100nM to .045 nM (in 3-fold dilutions in columns), and a PMEA range of 5 µM to 0.16 nM (3.16 fold dilutions in rows). Both drugs were diluted in a separate 96 well microtiter plate, and subsequently transferred onto plates containing the cell monolayers. Cells are grown in 150 µl RPMI 1640 supplemented with 2 mM L-Glutamine and 10% fetal bovine serum. Prior to transfer of drug, 120 µl of media was removed from the cells, leaving 30 µl on the monolayers to prevent drying. 90 µl of fresh media without drug was added, followed by the addition of 30 µl of 5X drug dilutions. Lamivudine and PMEA were each tested on their respective plates individually at the same concentrations. Data were normalised to values obtained with non-drug treated cells, and expressed as a percent of control for analysis. The method used for detection of HBV has been previously described (Jansen RW, Johnson LC, Averett, DR. High-Capacity in vitro assessment of anti-hepatitis B virus compound selectivity by a virion-specific polymerase chain reaction assay. Antimicrob Agents Chem 1993; 37 (3): 441-447.). Briefly, HBV detection was performed by "capturing" virus from supernatants on Anti-HBsAg coated plates, washing, denaturing to release HBV DNA, performing PCR with biotinylated primers, streptavidin capture of biotinylated PCR products with concomitant probe hybridization, addition of substrate, and reading optical densities of the colorimetric reaction. Dilutions of a standardized HBV-containing supernatant were included on every plate, and HBV DNA concentrations of test wells were calculated from this HBV standard curve. The useful range of detection is at least .045 to 45 fg of HBV DNA, where 30 copies of the genome can be reliably detected. Samples were tested in conjunction with both positive (.448 fg/ul plasmid DNA) and negative (RPMI medium supplemented with 2 mM L-Glutamine and 10% Fetal calf serum) controls. The average IC50 and standard error of the IC50s for the triplicate plates were calculated using SAS nonlinear regression to fit data to the Hill equation for each concentration response curve. When only a single determination of an IC50 for a particular dose combination could be made, the average of the standard errors from adjacent concentrations was used to estimate the standard error. Fractional inhibitory concentrations (FIC50) were calculated for each combination and plotted using the isobologram representation (Berenbaum, M.C. (1985) The Expected Effect ofa Combination of Agents: the General Solution. J. Theor. Biol. 114, 413-431). To assess statistical significance of synergy or antagonism, an unpaired t-test was used to compare each sum of paired FIC50 values with the theoretical value of 1. P values less than 0.05 were considered statistically significant. Comparison of P values between experiments must be interpreted with great care, as the experiments utilized different test concentration ranges (or ranges useable by the isobologram method). In some cases not all concentrations tested could support calculation of an IC50, since response was inhibited to a greater extent than 50 percent of control for all doses. […]

HBV L528M/ M552V = assay: as above; assay type: cell-based, hepatitis B virus
Description: as §2

HBV M552I = assay: as above; assay type: cell-based, hepatitis B virus
Description: as §2

HBV M552V = assay: as above; assay type: cell-based, hepatitis B virus
Description: as §2

[3] = tested on: WT HBV produced by the 2.2.15 cells; assay: PMEA inhibition of HBV DNA production in 2.2.15 stable HBV-producer cells; assay type: cell-based; details: Hepatitis B virus, 168 h, HBV DNA in media on day 7, read-out: IC50 PMEA (95%Cl)
Description: as §1

In the case of `Nc1ccn([C@@H]2CS[C@H](CO)O2)c(=O)n1` (relative stereo) [lamivudine, (2R,cis)-4-amino-1-(2-hydroxymethyl-1,3-oxathiolan-5-yl)-pyrimidin-2-one], the “patients maintaining undetectable levels of virus” value (HBV) is given as 52%.

For `Nc1ncnc2c1ncn2CCOCP(=O)(O)O` [PMEA, 9-[(R)-2-(phosphonomethoxy)ethyl]adenine], the IC50 (in vitro) is listed as 25 to 40 µM, the “cross-resistance to PMEA” value [1] is listed as “lack of cross-resistance” and the IC50 (WT HBV) is listed as 530 nM. The IC50 [2] was 700 nM, the IC50 (HBV L528M; Hepatitis B virus, 168 h, L528M construct, transfected HepG2 cells, day 7, read-out: IC50 PMEA (95%Cl)) was 870 nM and the “x-fold change in IC50” value (HBV L528M; L528M versus WT HBV) was 1.6. For the same molecule, the IC50 (HBV L528M/ M552V; Hepatitis B virus, 168 h, L528M/ M552V construct, transfected HepG2 cells, day 7, read-out: IC50 PMEA (95%Cl)) was 1300 nM, the “x-fold change in IC50” value (HBV L528M/ M552V; L528M/ M552V versus WT HBV) was 2.5 and the IC50 (HBV M552I; Hepatitis B virus, 168 h, M552I construct, transfected HepG2 cells, day 7, read-out: IC50 PMEA (95%Cl)) was 7.5 µM. For the same molecule, the “x-fold change in IC50” value (HBV M552I; M552I versus WT HBV) was 14, the IC50 (HBV M552V; Hepatitis B virus, 168 h, M552V construct, transfected HepG2 cells, day 7, read-out: IC50 PMEA (95%Cl)) was 9.8 µM and the “x-fold change in IC50” value (HBV M552V; M552V versus WT HBV) was 18. For the same molecule, the IC50 [3] was 430 nM.
